Inconclusive results and toxic doses are left out. Rule for the calls: active = survival T/C of 150% or more; inactive = T/C below 125% in these data.
Test system: BDF1 mice, B16 melanoma ip, median survival T/C
Test: NCI In Vivo Anticancer Drug Screen. Data for tumor model B16 Melanoma (intraperitoneal) in B6D2F1 (BDF1) mice
Settings: endpoint: median survival time, higher = longer survival
Method in brief: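 Transplantable tumor model; survival or tumor size measured; reported as T/C, treated over vehicle control.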

[1] = dose: 25.0 mg/kg/injection, schedule: Q01DX009 (ip), vehicle: Klucel (hydroxypropylcellulose) (HPC)
[2] = dose: 50.0 mg/kg/injection, schedule: Q01DX009 (ip), vehicle: Klucel (hydroxypropylcellulose) (HPC)
[3] = dose: 100.0 mg/kg/injection, schedule: Q01DX009 (ip), vehicle: Klucel (hydroxypropylcellulose) (HPC)
[4] = dose: 50.0 mg/kg/injection, schedule: Q01DX009 (ip), vehicle: saline with Tween-80
[5] = dose: 100.0 mg/kg/injection, schedule: Q01DX009 (ip), vehicle: saline with Tween-80

Measured: T/C

COc1ccccc1NC(N)=S
inactive: [1] 110 % of control | [2] 103 % of control | [3] 100 % of control

CC(=O)C(Cl)C(=O)c1c(C)[nH]n(-c2ccccc2)c1=O (centres undefined)
inactive: [1] 108 % of control | [2] 98 % of control

Cc1ccc(C)c(NC(=O)Nc2cccc3ccccc23)c1
inactive: dose: 9.0 mg/kg/injection, schedule: Q01DX009 (ip), vehicle: gum acacia 108 % of control | dose: 18.0 mg/kg/injection, schedule: Q01DX009 (ip), vehicle: gum acacia 98 % of control | dose: 37.0 mg/kg/injection, schedule: Q01DX009 (ip), vehicle: gum acacia 91 % of control

CN(C)c1ccc2c(c1)C(Br)c1ccccc1-2 (centres undefined)
inactive: dose: 6.25 mg/kg/injection, schedule: Q04DX003 (ip), vehicle: Klucel (hydroxypropylcellulose) (HPC) 102 % of control | dose: 12.5 mg/kg/injection, schedule: Q04DX003 (ip), vehicle: Klucel (hydroxypropylcellulose) (HPC) 105 % of control | dose: 25.0 mg/kg/injection, schedule: Q04DX003 (ip), vehicle: Klucel (hydroxypropylcellulose) (HPC) 97 % of control

Clc1c(Cl)c(CBr)c(Cl)c(CBr)c1Cl
inactive: dose: 1.56 mg/kg/injection, schedule: Q01DX009 (ip), vehicle: Klucel (hydroxypropylcellulose) (HPC) 100 % of control | dose: 6.25 mg/kg/injection, schedule: Q01DX009 (ip), vehicle: Klucel (hydroxypropylcellulose) (HPC) 105 % of control | dose: 12.5 mg/kg/injection, schedule: Q01DX009 (ip), vehicle: Klucel (hydroxypropylcellulose) (HPC) 102 % of control | dose: 12.5 mg/kg/injection, schedule: Q04DX003 (ip), vehicle: saline with Tween-80 86 % of control | dose: 25.0 mg/kg/injection, schedule: Q01DX009 (ip), vehicle: saline with Tween-80 95 % of control | dose: 25.0 mg/kg/injection, schedule: Q04DX003 (ip), vehicle: saline with Tween-80 92 % of control | [4] 97 % of control | [5] 95 % of control

CC(=O)OCC1OC(n2ncc(=O)[nH]c2=O)C(OC(C)=O)C1OC(C)=O (centres undefined)
inactive: [4] 106 % of control | [5] 91 % of control | dose: 200.0 mg/kg/injection, schedule: Q01DX009 (ip), vehicle: saline with Tween-80 95 % of control | dose: 400.0 mg/kg/injection, schedule: Q01DX009 (ip), vehicle: saline with Tween-80 102 % of control | dose: 800.0 mg/kg/injection, schedule: Q01DX009 (ip), vehicle: saline with Tween-80 100 % of control

CC1(C)N=C(N)N=C(N)N1c1cccc(OCCOc2ccc([N+](=O)[O-])cc2)c1
inactive: [1] 101 % of control | [2] 102 % of control | [3] 100 % of control | dose: 200.0 mg/kg/injection, schedule: Q01DX009 (ip), vehicle: Klucel (hydroxypropylcellulose) (HPC) 102 % of control

CC1Cc2c(Cl)cc(C(=O)NC(Cc3ccccc3)C(=O)O)c(O)c2C(=O)O1 (centres undefined)
inactive: dose: 0.12 mg/kg/injection, schedule: Q01DX009 (ip), vehicle: saline with Tween-80 112 % of control | dose: 0.25 mg/kg/injection, schedule: Q01DX009 (ip), vehicle: saline with Tween-80 119 % of control | dose: 0.5 mg/kg/injection, schedule: Q01DX009 (ip), vehicle: saline with Tween-80 114 % of control

CCCCCCCC(=O)O[C@H]1[C@H]2[C@@H](CC1(C)C)C(=O)[C@]13O[C@H]1C(=O)[C@]1(CO1)[C@]23C
inactive: dose: 0.31 mg/kg/injection, schedule: Q01DX009 (ip), vehicle: Klucel (hydroxypropylcellulose) (HPC) 98 % of control | dose: 0.63 mg/kg/injection, schedule: Q01DX009 (ip), vehicle: Klucel (hydroxypropylcellulose) (HPC) 102 % of control | dose: 0.63 mg/kg/injection, schedule: Q01DX009 (ip), vehicle: saline with Tween-80 92 % of control | dose: 1.25 mg/kg/injection, schedule: Q01DX009 (ip), vehicle: Klucel (hydroxypropylcellulose) (HPC) 100 % of control | dose: 1.25 mg/kg/injection, schedule: Q01DX009 (ip), vehicle: saline with Tween-80 89 % of control | dose: 2.5 mg/kg/injection, schedule: Q01DX009 (ip), vehicle: Klucel (hydroxypropylcellulose) (HPC) 98 % of control | dose: 2.5 mg/kg/injection, schedule: Q01DX009 (ip), vehicle: saline with Tween-80 92 % of control | dose: 5.0 mg/kg/injection, schedule: Q01DX009 (ip), vehicle: Klucel (hydroxypropylcellulose) (HPC) 90 % of control | dose: 10.0 mg/kg/injection, schedule: Q01DX009 (ip), vehicle: Klucel (hydroxypropylcellulose) (HPC) 86 % of control

O=C(O)c1cc(O)ccc1O
inactive: dose: 25.0 mg/kg/injection, schedule: Q01DX009 (ip), vehicle: saline 93 % of control | dose: 50.0 mg/kg/injection, schedule: Q01DX009 (ip), vehicle: saline 100 % of control | dose: 100.0 mg/kg/injection, schedule: Q01DX009 (ip), vehicle: saline 102 % of control | dose: 200.0 mg/kg/injection, schedule: Q01DX009 (ip), vehicle: saline 98 % of control
